Assay results from patent publication US20240158446A1, “CYCLIC COMPOUND HAVING SELECTIVE INHIBITORY ACTION ON KRAS OVER HRAS AND NRAS” (CHUGAI SEIYAKU KABUSHIKI KAISHA, priority 2021, published 2024).

Tests used:
[1] = target: GDP-bound KRAS wild-type protein (Homo sapiens, UniProt P01116); assay: Binding to KRAS by surface plasmon resonance (SPR), Single Cycle Kinetics; details: SPR, Single Cycle Kinetics, 1:1 binding model; GDP-bound KRAS wild-type protein; read-out: KRAS KD
[2] = target: GDP-bound HRAS wild-type protein (Homo sapiens, UniProt P01112); assay: Binding to HRAS by surface plasmon resonance (SPR), Single Cycle Kinetics; details: SPR; GDP-bound HRAS wild-type protein vs GDP-bound KRAS wild-type protein; KD ratio class
[3] = test system: human lung cancer strain NCI-H441;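 further: cell proliferation inhibition after four days measured by CellTiter-Glo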
[4] = target: GDP-bound NRAS wild-type protein (Homo sapiens, UniProt P01111); assay: Binding to NRAS by surface plasmon resonance (SPR), Single Cycle Kinetics; details: SPR; GDP-bound NRAS wild-type protein vs GDP-bound KRAS wild-type protein; KD ratio class
Chain of GDP-bound NRAS wild-type protein (P01111 whole entry): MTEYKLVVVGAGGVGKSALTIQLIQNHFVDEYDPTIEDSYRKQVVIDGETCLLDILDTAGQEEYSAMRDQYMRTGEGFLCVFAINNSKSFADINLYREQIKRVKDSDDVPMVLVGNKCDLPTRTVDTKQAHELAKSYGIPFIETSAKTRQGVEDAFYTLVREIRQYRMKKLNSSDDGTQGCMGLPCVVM

Chain of GDP-bound HRAS wild-type protein (P01112 whole entry): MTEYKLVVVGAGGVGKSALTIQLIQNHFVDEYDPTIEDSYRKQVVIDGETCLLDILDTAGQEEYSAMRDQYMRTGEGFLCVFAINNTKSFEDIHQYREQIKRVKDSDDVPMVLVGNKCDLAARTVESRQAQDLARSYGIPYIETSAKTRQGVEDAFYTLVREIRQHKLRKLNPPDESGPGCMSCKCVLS
Chain of GDP-bound KRAS wild-type protein (P01116 whole entry): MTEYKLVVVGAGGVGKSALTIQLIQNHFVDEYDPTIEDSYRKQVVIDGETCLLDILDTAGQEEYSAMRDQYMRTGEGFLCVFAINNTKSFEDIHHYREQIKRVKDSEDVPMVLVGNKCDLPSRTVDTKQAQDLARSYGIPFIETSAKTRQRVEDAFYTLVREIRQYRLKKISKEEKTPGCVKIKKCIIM

SMILES | Kd [1] [nM] | HRAS/KRAS (ratio of KD value for HRAS to KD value for KRAS) [2] | IC50 [3] [nM] | NRAS/KRAS (ratio of KD value for NRAS to KD value for KRAS) [4]
CCO[C@@H]1C[C@H]2C(=O)NC3(CCC3)C(=O)N(C)[C@@H](C3CCCC3)C(=O)N(C)[C@H](C(=O)N(C)C)CC(=O)N(C)[C@@H](CC(C)C)C(=O)N[C@@H]([C@@H](C)CC)C(=O)N(C)CC(=O)N(C)[C@H]3C/C=C\CCN(C3=O)[C@@H](Cc3ccc(F)cc3C)C(=O)N(C)CC(=O)N[C@@H](CCc3cc(F)c(Cl)c(F)c3)C(=O)N2C1 [PP1481] | 1.2 | B (a compound having 3 or more and less than 10 is denoted as B) | 14.8 | A (a compound having 10 or more and less than 20 is denoted as A)
CCO[C@@H]1C[C@H]2C(=O)NC3(CCC3)C(=O)N(C)[C@@H](C3CCCC3)C(=O)N(C)[C@H](C(=O)N(C)C)CC(=O)N(C)[C@@H](CC(C)C)C(=O)N[C@@H]([C@@H](C)CC)C(=O)N(C)CC(=O)N(C)[C@H]3C/C=C\CCN(C3=O)[C@@H](Cc3ccc(F)cc3)C(=O)N(C)CC(=O)N[C@@H](CCc3ccc(Cl)c(Cl)c3)C(=O)N2C1 [PP1482] | 0.45 | B (a compound having 3 or more and less than 10 is denoted as B) | 76.4 | A (a compound having 10 or more and less than 20 is denoted as A)
CCO[C@@H]1C[C@H]2C(=O)NC3(CCC3)C(=O)N(C)[C@@H](C3CCCC3)C(=O)N(C)[C@H](C(=O)N(C)C)CC(=O)N(C)[C@@H](CC(C)C)C(=O)N[C@@H]([C@@H](C)CC)C(=O)N(C)CC(=O)N(C)[C@H]3C/C=C\CCN(C3=O)[C@@H](Cc3ccc(F)cc3)C(=O)N(C)CC(=O)N[C@@H](CCc3cc(F)c(Cl)c(F)c3)C(=O)N2C1 [PP1483] | 0.51 | B (a compound having 3 or more and less than 10 is denoted as B) | 90.3 | A (a compound having 10 or more and less than 20 is denoted as A)
CCO[C@@H]1C[C@H]2C(=O)NC3(CCC3)C(=O)N(C)[C@@H](C3CCCC3)C(=O)N(C)[C@H](C(=O)N(C)C)CC(=O)N(C)[C@@H](CC3CC3)C(=O)N[C@@H]([C@@H](C)CC)C(=O)N(C)CC(=O)N(C)[C@H]3C/C=C\CCN(C3=O)[C@@H](Cc3ccc(C)cc3)C(=O)N(C)CC(=O)N[C@@H](CCc3cc(F)c(Cl)c(F)c3)C(=O)N2C1 [PP1484] | 0.45 | A (a compound having 10 or more and less than 20 is denoted as A) | 59.3 | A (a compound having 10 or more and less than 20 is denoted as A)
CCO[C@@H]1C[C@H]2C(=O)NC3(CCC3)C(=O)N(C)[C@@H](C3CCCC3)C(=O)N(C)[C@H](C(=O)N(C)C)CC(=O)N(C)[C@@H](CC3CC3)C(=O)N[C@@H]([C@@H](C)CC)C(=O)N(C)CC(=O)N(C)[C@H]3C/C=C\CCN(C3=O)[C@@H](Cc3ccc(C)cc3)C(=O)N(C)CC(=O)N[C@@H](CCc3ccc(Cl)c(Cl)c3)C(=O)N2C1 [PP1485] | 0.28 | A (a compound having 10 or more and less than 20 is denoted as A) | 30.5 | A (a compound having 10 or more and less than 20 is denoted as A)
CCO[C@@H]1C[C@H]2C(=O)NC3(CCC3)C(=O)N(C)[C@@H](C3CCCC3)C(=O)N(C)[C@H](C(=O)N(C)C)CC(=O)N(C)[C@@H](CC3CCCC3)C(=O)N[C@@H]([C@@H](C)CC)C(=O)N(C)CC(=O)N(C)[C@H]3C/C=C\CCN(C3=O)[C@@H](Cc3ccc(C)cc3)C(=O)N(C)CC(=O)N[C@@H](CCc3cc(F)c(Cl)c(F)c3)C(=O)N2C1 [PP1486] | 0.46 | A (a compound having 10 or more and less than 20 is denoted as A) | 15 | A (a compound having 10 or more and less than 20 is denoted as A)
CCO[C@@H]1C[C@H]2C(=O)NC3(CCC3)C(=O)N(C)[C@@H](C3CCCC3)C(=O)N(C)[C@H](C(=O)N(C)C)CC(=O)N(C)[C@@H](CC3CC3)C(=O)N[C@@H]([C@@H](C)CC)C(=O)N(C)CC(=O)N(C)[C@H]3C/C=C\CCN(C3=O)[C@@H](Cc3ccc(F)cc3)C(=O)N(C)CC(=O)N[C@@H](CCc3cc(F)c(C(F)(F)F)c(F)c3)C(=O)N2C1 [PP1529, (2S,8S,12R,14S,20S,23S,27S,30S,36S,38Z)-20-cyclopentyl-27-(cyclopropylmethyl)-8-[2-[3,5-difluoro-4-(trifluoromethyl)phenyl]ethyl]-12-ethoxy-2-[(4-fluorophenyl)methyl]-N,N,4,19,22,26,32,35-octamethyl-30-[(1S)-1-methylpropyl]-3,6,9,15,18,21,25,28,31,34,42-undecaoxo-spiro[1,4,7,10,16,19,22,26,29,32,35-undecazatricyclo[34.5.1.0^10,14]dotetracont-38-ene-17,1′-cyclobutane]-23-carboxamide] | 0.081 | B (a compound having 3 or more and less than 10 is denoted as B) | 30.2 | A (a compound having 10 or more and less than 20 is denoted as A)
CCCC[C@H]1C(=O)N[C@@H]([C@@H](C)CC)C(=O)N(C)CC(=O)N(C)[C@H]2C/C=C\CCN(C2=O)[C@@H](Cc2ccc(C(F)(F)F)cc2)C(=O)N(C)CC(=O)N[C@@H](CCc2cc(F)c(C(F)(F)F)c(F)c2)C(=O)N2C[C@H](OCC)C[C@H]2C(=O)NC2(CCC2)C(=O)N(C)[C@@H](C2CCCC2)C(=O)N(C)[C@H](C(=O)N(C)CC)CC(=O)N1C [PP1558] | 0.11 | B (a compound having 3 or more and less than 10 is denoted as B) | 3.4 | A (a compound having 10 or more and less than 20 is denoted as A)
CCCC[C@H]1C(=O)N[C@@H]([C@@H](C)CC)C(=O)N(C)CC(=O)N(C)[C@H]2C/C=C\CCN(C2=O)[C@@H](Cc2ccc(C(F)(F)F)cc2)C(=O)N(C)CC(=O)N[C@@H](CCc2ccc(C(F)(F)F)c(OC)c2)C(=O)N2C[C@H](OCC)C[C@H]2C(=O)NC2(CC(C)(C)C2)C(=O)N(C)[C@@H](C2CCCC2)C(=O)N(C)[C@H](C(=O)N(C)C)CC(=O)N1C [PP1561] | 0.064 | B (a compound having 3 or more and less than 10 is denoted as B) | 2.7 | A (a compound having 10 or more and less than 20 is denoted as A)
CCO[C@@H]1C[C@H]2C(=O)NC3(CC(C)(C)C3)C(=O)N(C)[C@@H](C3CCCC3)C(=O)N(C)[C@H](C(=O)N(C)C)CC(=O)N(C)[C@@H](CC(C)C)C(=O)N[C@@H]([C@@H](C)CC)C(=O)N(C)CC(=O)N(C)[C@H]3C/C=C\CCN(C3=O)[C@@H](Cc3ccc(C(F)(F)F)cc3)C(=O)N(C)CC(=O)N[C@@H](CCc3ccc(C(F)(F)F)c(OC)c3)C(=O)N2C1 [PP1562] | 0.046 | A (a compound having 10 or more and less than 20 is denoted as A) | 1.7 | A (a compound having 10 or more and less than 20 is denoted as A)
CCO[C@@H]1C[C@H]2C(=O)NC3(CC(C)(C)C3)C(=O)N(C)[C@@H](C3CCCC3)C(=O)N(C)[C@H](C(=O)N(C)C)CC(=O)N(C)[C@@H](CC3CCC3)C(=O)N[C@@H]([C@@H](C)CC)C(=O)N(C)CC(=O)N(C)[C@H]3C/C=C\CCN(C3=O)[C@@H](Cc3ccc(C(F)(F)F)cc3)C(=O)N(C)CC(=O)N[C@@H](CCc3ccc(C(F)(F)F)c(OC)c3)C(=O)N2C1 [PP1564] | 0.073 | A (a compound having 10 or more and less than 20 is denoted as A) | 3 | A (a compound having 10 or more and less than 20 is denoted as A)
CC[C@H](C)[C@@H]1NC(=O)[C@H](CC(C)C)N(C)C(=O)C[C@@H](C(=O)N(C)C)N(C)C(=O)[C@H](C2CCCC2)N(C)C(=O)C2(CC(C)(C)C2)NC(=O)[C@@H]2C[C@@H](F)CN2C(=O)[C@H](CCc2cc(F)c(C(F)(F)F)c(F)c2)NC(=O)CN(C)C(=O)[C@H](Cc2ccc(C(F)(F)F)cc2)N2CC/C=C\C[C@@H](C2=O)N(C)C(=O)CN(C)C1=O [PP1566] | 0.026 | A (a compound having 10 or more and less than 20 is denoted as A) | 2.3 | A (a compound having 10 or more and less than 20 is denoted as A)
CCO[C@@H]1C[C@H]2C(=O)NC3(CC(C)(C)C3)C(=O)N(C)[C@@H](C3CCCC3)C(=O)N(C)[C@H](C(=O)N(CC)CC)CC(=O)N(C)[C@@H](CC)C(=O)N[C@@H]([C@@H](C)CC)C(=O)N(C)CC(=O)N(C)[C@H]3C/C=C\CCN(C3=O)[C@@H](Cc3ccc(C(F)(F)F)cc3)C(=O)N(C)CC(=O)N[C@@H](CCc3cc(F)c(C(F)(F)F)c(F)c3)C(=O)N2C1 [PP1580] | 0.17 | A (a compound having 10 or more and less than 20 is denoted as A) | 9.7 | A (a compound having 10 or more and less than 20 is denoted as A)
CCO[C@@H]1C[C@H]2C(=O)NC3(CC(C)(C)C3)C(=O)N(C)[C@@H](C3CCCC3)C(=O)N(C)[C@H](C(C)C)CC(=O)N(C)[C@@H](CC)C(=O)N[C@@H]([C@@H](C)CC)C(=O)N(C)CC(=O)N(C)[C@H]3C/C=C\CCN(C3=O)[C@@H](Cc3ccc(C(F)(F)F)cc3)C(=O)N(C)CC(=O)N[C@@H](CCc3cc(F)c(C(F)(F)F)c(F)c3)C(=O)N2C1 [PP1588] | 0.6 | B (a compound having 3 or more and less than 10 is denoted as B) | 24.2 | B (a compound having 3 or more and less than 10 is denoted as B)
